The source of these data is patent US8466134B1, “Aqueous compositions containing corticosteroids for nasal and pulmonary delivery” (Athena Neurosciences, Inc., priority 1998, dated 2013).

A short description of this data set: Storage stability of budesonide formulations, % recovery (Examples 6 and 8). The format is physicochemical. The following applies: pH between about 3 and about 8, more preferably about 3.5 to about 6. On the procedure: After dilution all samples were sterilized by filtering them through a 0.2 μm Millipore sterile filters and placed in sterile low density polyethylene plastic vials. These formulations were kept in humidity and temperature controlled chambers at 5° C. 25° C./60% RH and 40° C./75% RH (where RH is the relative humidity). The % recovery after 13.5 weeks from time zero is presented for each formulation and storage condition, in the following table: […]
The formulations described in Examples 6 and 7 were also prepared using lower buffer concentrations of 10 mM, 5 mM, and 1 mM with similar stability results.

As to `CCCC1O[C@@H]2C[C@H]3[C@@H]4CCC5=CC(=O)C=C[C@]5(C)[C@H]4[C@@H](O)C[C@]3(C)[C@]2(C(=O)CO)O1` (stereo partly shown) [Budesonide, budesonide], the “stability of aqueous compositions at lower pH ranges” value is given as “superior stability”.
